Assay results taken from patent US20240350494A1, “THERAPEUTIC MODULATION OF INTEGRINS” (Pliant Therapeutics, Inc., priority 2021, published 2024).

Key:
COL1A1 expression = experiment: Precision cut lung slices from human IPF explants, COL1A1 expression; assay type: cell-based; conditions: for COL1A1 expression, treatment alone: PCLS from 5-7 IPF samples, seven days, nintedanib 75 nM, pirfenidone 50 μm
From the text: Explanted lung tissue was obtained from human IPF subjects and inflated with agarose as described in the preceding examples. Biopsy cores were obtained from the agarose-inflated lung tissue. The biopsy cores were subjected to precision slicing to obtain several hundred μm thick. Individual slices were distributed in a multiwell culture plate and cultured for […] under control (DMSO) and test compound conditions. The viability of the slices over the course of culturing was confirmed by WST-1 assay of mitochondrial activity.
PCLS from 5-7 idopathic pulmonary fibrosis (IPF) lung tissue samples were cultured for seven days with one of: DMSO; Compound 5 at 200 nM; nintedanib at 75 nM; pirfenidone at 50 μm; a combination of Compound 5 at 200 nM and nintedanib at 75 nM; a combination of Compound 5 at 200 nM and pirfenidone at 50 μm; or an Alk5 inhibitor at 1 μm. […] FIG. 4D is a bar graph showing relative expression of COL1A1 in precision cut lung slices (PCLS) from idopathic pulmonary fibrosis (IPF) lung tissue upon exposure to Compound 5, clinical standard of care compounds nintedanib (Nin) and pirfenidone (Pirf), and an ALK5 inhibitor, all versus DMSO control.
PCLS from a single IPF lung tissue sample were cultured for seven days with Compound 5 at concentrations of 200 μM, 2 nM, 60 nM, 200 nM, and 1 μM, along with 0.1% DMSO control and an Alk5 inhibitor at 1 μM. […] COL1A1 expression is also graphed for the PCLS in the presence of 0.1% DMSO control, and an Alk5 inhibitor at 1 μM.

lung Col1a1 expression = experiment: Precision cut lung slices, chronic bleomycin exposure, Col1a1 expression; assay type: cell-based, mice (C57BL/6); conditions: 7 days culture, ALK5 inhibitor at 10× IC50; for lung slice Col1a1 expression compared to DMSO vehicle control slices: nintedanib and pirfenidone at 10× therapeutic concentrations, FIG. 4A
Experimental: (§1) Mice (C57BL/6) were administered 3 U/kg of bleomycin (Teva Pharmaceuticals; North Wales, PA) on Day 0 and 1 U/kg of bleomycin on days 14, 28, 42 and 56 via oropharyngeal aspiration while under anesthesia. At day 70, 14 days after the final bleomycin insult, precision cut lung slices were obtained. Following euthanization, 2% low gelling temp agarose was injected into the mouse lungs via the trachea. […] The lobes were then subjected to precision slicing to obtain samples for culture using a microtome (Compresstome VF-300-OZ, Precisionary; Greenville, NC). Individual slices were distributed in a multiwell culture plate and cultured for 7 days under control (DMSO) and test compound conditions. The viability of the slices over the course of culturing was confirmed by WST-1 assay of mitochondrial activity.
During the culture period, slices in the control group were treated with DMSO and slices in the test group were treated with a DMSO solution of one of: the selective antibody αVβ6 inhibitor 3G9; the αVβ1-selective small molecule inhibitor; a combination of the selective antibody αVβ6 inhibitor 3G9 and the αVβ1-selective small molecule inhibitor; compound 5; and the small molecule ALK5 inhibitor. The selective αVβ1 and αVβ6 integrin inhibitors were analyzed at ≥their respective IC90 concentrations for inhibition of TGF-beta activation. Compound 5 was run at approximate IC50 for inhibition of TGF-beta activation by αVβ6.
as §1, with “following” for “after”
During the culture period, slices in the control group were treated with DMSO and slices in the test group were treated with a DMSO solution of one of: compound 5; nintedanib; pirfenidone; a combination of nintedanib and compound 5; a combination of pirfenidone and compound 5; or the small molecule ALK5 inhibitor. Compound 5 was […] effective to equal or exceed its respective IC50 values at αVβ6 and αVβ1. […] Nintendanib and pirfenidone were analyzed at concentrations 10× their reported therapeutic concentrations.

[1] = system: Type I Collagen gene Col1a1 expression; experiment: Precision cut lung slices, acute bleomycin exposure, Col1a1 expression; assay type: cell-based, mice (C57BL/6); conditions: for Type I Collagen gene Col1a1 expression, normalized to DMSO control slices: 3 days culture, integrin inhibitors at IC50 for TGF-beta activation, pan-αV and ALK5 inhibitors at 10× reported IC50, FIG. 3A
Experimental: Mice (C57BL/6) were administered 3 U/kg of bleomycin (Teva Pharmaceuticals; North Wales, PA) on day 0 via oropharyngeal aspiration while under anesthesia. On day 14, precision cut lung slices were obtained. Following euthanization, 2% low gelling temp agarose was injected into the mouse lungs via the trachea. […] The lobes were then subjected to precision slicing to obtain samples for culture using a microtome (Compresstome VF-300-OZ, Precisionary; Greenville, NC). Individual slices were distributed in a multiwell culture plate and cultured for 3 days under control (DMSO) and test compound conditions.

Row | Structure (SMILES) | COL1A1 expression, treatment alone (COL1A1 expression) | lung slice Col1a1 expression compared to DMSO vehicle control slices (lung Col1a1 expression) | increase in concentration over compound 5 needed to reduce lung slice Col1a1 expression by 50% ([1]; acute bleomycin injured lung slices, FIG. 4B) [fold] | Type I Collagen gene Col1a1 expression, normalized to DMSO control slices [1] | lung Col1a1 expression, normalized to DMSO control slices (COL1A1 expression; human IPF slices, 3 days, 3G9 ≥400 ng/mL, compound 5 179 nM, ALK5 inhibitor 1 μM, FIG. 4C) | lung Col1a1 expression, normalized to DMSO control slices (lung Col1a1 expression; Compound 5 at approximate IC50 (αVβ6), selective inhibitors at ≥IC90, FIG. 3B)
1 | COC(=O)c1ccc2c(c1)NC(=O)/C2=C(\Nc1ccc(N(C)C(=O)CN2CCN(C)CC2)cc1)c1ccccc1 [nintedanib] | did not significantly reduce | slight increase | 5.2 | – | – | –
2 | Cc1ccc(=O)n(-c2ccccc2)c1 [pirfenidone] | did not significantly reduce | slight increase | – | – | – | –
3 | CC(C)(C)c1cc(Br)cc([C@H](CC(=O)O)NC(=O)CNC(=O)c2cc(O)cc(NC3=NCC(O)CN3)c2)c1 (stereo partly drawn) [second pan-αV small molecule inhibitor, (3S)—N-[3-hydroxy-5-[(1,4,5,6-tetrahydro-5-hydroxy-2-pyrimidinyl)amino]benzoyl]glycyl-3-[3-bromo-5-(1,1-dimethylethyl)phenyl]-β-alanine] | – | – | – | decreased Type I Collagen gene Col1a1 expression comparably | – | –
4 | Cc1cccc(-c2n[nH]cc2-c2ccc(F)c(-c3cnn(CCO)c3)c2)n1 [small molecule ALK5 inhibitor, 4-[2-Fluoro-5-[3-(6-methyl-2-pyridinyl)-1H-pyrazol-4-yl]phenyl]-1H-pyrazole-1-ethanol] | – | substantial, statistically significant (p<0.0001 vs vehicle) decrease | – | greatest decrease | substantial, statistically significant | greatest decrease
